Source: patent US20220177456A1, “COMPOUNDS, COMPOSITIONS AND METHODS” (Denali Therapeutics Inc., priority 2019, published 2022)

Test system: ISR pathway (ATF4 translation), H4 ATF4-NLuc (clone 17) cell line
Experiment: ATF4 Nano Luciferase reporter integrated stress response (ISR) assay in H4 ATF4-NLuc cells
Format: cell-based
Conditions: human H4 neuroglioma ATF4-NLuc cells; compound 30 minutes, then 50 μm sodium arsenite for 6 hours; luminescence readout
Excerpt: Cellular stress leads to activation of the integrated stress response pathway through one of four eukaryotic initiation factor 2α kinases and halts global translation, while allowing for the translation of select transcripts like ATF4 (activating transcription factor 4) that are important for the response to cellular stress. During normal conditions, small open reading frames (ORFs) in the 5′ UTR of ATF4 occupy the ribosome and prevent translation of the coding sequence of ATF4. During stress conditions however, the ribosome scans past these upstream ORFs and preferentially begins translation at the coding sequence of ATF4. In this way, the translation, and thus protein level of ATF4 is a readout of ISR pathway activation. Thus, a fusion of the uORFs and the beginning of the coding sequence of ATF to a common cellular reporter like nano-luciferase allows for a sensitive and high-throughput readout of ISR pathway activity.
Compounds as provided herein were tested in the following assay. The ATF4 Nano Luciferase reporter was constructed by fusing the human full length 5′ untranslated region (5′-UTR) and a small portion of the coding sequence of the ATF4 gene upstream of the Nano Luciferase (NLuc) coding sequence lacking it's start codon. Specifically, nucleotides +1 through +364 (relative to the transcriptional start site) of ATF4 transcript variant 2 (NCBI NM_182810.2) flanked 5′ by EcoRI and 3′ by BamHI restriction enzyme sites were synthesized and cloned into the EcoRI/BamHI cloning sites of pLVX-EF1a-IRES-Puro lentivirus vector (Clontech). Lentiviral particles were produced with Lenti-X single shots (VSV-G, Clontech) according to the manufacturer's instructions and used to transduce a human H4 neuroglioma cell line (ATCC HT1B-148). H4 cells were selected with 1.25 μg/mL Puromycin, and clonal cell lines generated by limiting dilution. We utilized this cell line to generate an integrated stress response (ISR) assay to evaluate the activity of ISR pathway inhibitors via luminescence readout. The H4 ATF4-NLuc (clone 17) cell line is plated at a density of […] cells in 96-well or 384-well respectively in DMEM +10% fetal bovine serum. 24-hours later test compounds diluted in dimethyl sulfoxide (DMSO) are added for 30 minutes at 37° C., followed by ISR pathway activation with 50 μm sodium arsenite aqueous solution for 6 additional hours. Nano Glo luciferase reagent (N1150, Promega) is added according to manufacturer instructions and the luminescence signal (corresponding to the level of ATF4 translation and thus ISR pathway activation) is read with a standard plate reader with luminescence detection capabilities.
In the tables below, activity of the tested compounds is provided, and in Table 3 as follows: +++=0.003 μM<IC50<1 μM; ++=IC50 1-10 μM; +=IC50>10 μM.

Compound	IC50
O=C(COc1ccc(Cl)cc1)N[C@@H]1CC[C@@H](C(=O)NCc2ccc(Cl)cc2)OC1 [Example 29, (2S,5R)-5-[[2-(4-chlorophenoxy)acetyl]amino]-N-[(4-chlorophenyl)methyl] tetrahydropyran-2-carboxamide]	3 to 1000 nM
O=C(N[C@H]1C[C@@H](OC(F)(F)F)C1)[C@@H]1CC[C@@H](n2cnc(-c3ccc(Cl)c(F)c3)c2)CO1 [Example 25, (2S,5R)-5-[4-(4-chloro-3-fluoro-phenyl)imidazol-1-yl]-N-[3-cis-(trifluoromethoxy)cyclobutyl] tetrahydropyran-2-carboxamide]	3 to 1000 nM
O=C(NCC1CC(OC(F)(F)F)C1)[C@@H]1CC[C@@H](n2cnc(-c3ccc(Cl)c(F)c3)c2)CO1 (stereo partly drawn) [Example 23, (2S,5R)-5-[4-(4-chloro-3-fluoro-phenyl)imidazol-1-yl]-N-[[3-(trifluoromethoxy)cyclobutyl]methyl] tetrahydropyran-2-carboxamide]	3 to 1000 nM

The remaining lines, values ahead:

IC50	Compound
3 to 1000 nM	O=C(NC[C@H]1C[C@@H](OC(F)(F)F)C1)[C@@H]1CC[C@@H](n2cnc(-c3ccc(Cl)c(F)c3)c2)CO1 [Example 26, (2S,5R)-5-[4-(4-chloro-3-fluoro-phenyl)imidazol-1-yl]-N-[[3-cis-(trifluoromethoxy)cyclobutyl]methyl] tetrahydropyran-2-carboxamide]
3 to 1000 nM	O=C(COc1ccc(Cl)c(F)c1)N[C@@H]1CC[C@@H](C(=O)N2CCC(OC(F)(F)F)CC2)OC1 [Example 30, 2-(4-chloro-3-fluoro-phenoxy)-N-[(3R,6S)-6-[4-(trifluoromethoxy)piperidine-1-carbonyl]tetrahydropyran-3-yl]acetamide]
3 to 1000 nM	O=C(COc1ccc(Cl)cc1)N[C@@H]1CC[C@@H](C(=O)NCc2cccc(C(F)(F)F)c2)OC1 [Example 14, (2S,5R)-5-[[2-(4-chlorophenoxy)acetyl]amino]-N-[[3-(trifluoromethyl)phenyl]methyl] tetrahydropyran-2-carboxamide]
